Reference: ChEMBL document CHEMBL1201862, “PubChem BioAssay data set” (2004)
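Five compound concentrations were applied to cells in 96-well plates for 48 hours; endpoints were derived by simple linear interpolation of the resulting dose-response curve. Here, GI50 denotes the concentration required for 50% inhibition of growth.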 Active and inactive are the calls of the source. Cut-off read from the data, not from the text of the source: active = GI50 up to about 1.1 µM and inactive = higher.

Columns and labels:
Experiment in all cases: DTP human tumour cell line panel, 48 h
SK-MEL-2 = tested on: SK-MEL-2
SK-MEL-28 = tested on: SK-MEL-28
U-251 = tested on: U-251
SNB-19 = tested on: SNB-19
OVCAR-5 = tested on: OVCAR-5
SF-295 = tested on: SF-295
M14 = tested on: M14
NCI-H522 = tested on: NCI-H522
EKVX = tested on: EKVX
SW-620 = tested on: SW-620
CCRF-CEM = tested on: CCRF-CEM
NCI-H460 = tested on: NCI-H460
MOLT-4 = tested on: MOLT-4
UACC-257 = tested on: UACC-257
OVCAR-8 = tested on: OVCAR-8
NCI-H23 = tested on: NCI-H23
LOX IMVI = tested on: LOX IMVI
NCI/ADR-RES = tested on: NCI/ADR-RES
K562 = tested on: K562
HCT-116 = tested on: HCT-116

Row | SMILES | GI50 (SK-MEL-2) | GI50 (SK-MEL-28) | GI50 (U-251) | GI50 (SNB-19) | GI50 (OVCAR-5) | GI50 (SF-295) | GI50 (M14) | GI50 (NCI-H522) | GI50 (EKVX) | GI50 (SW-620) | GI50 (CCRF-CEM) | GI50 (NCI-H460) | GI50 (MOLT-4) | GI50 (UACC-257) | GI50 (OVCAR-8) | GI50 (NCI-H23) | GI50 (LOX IMVI) | GI50 (NCI/ADR-RES) | GI50 (K562) | GI50 (HCT-116)
1 | CC(CO)(CO)/N=C/c1cc(I)cc(I)c1O | 12.2 µM (inactive) | 16.6 µM (inactive) | 12.8 µM (inactive) | 20.3 µM (inactive) | 22.3 µM (inactive) | 15.8 µM (inactive) | 14.1 µM (inactive) | 19.1 µM (inactive) | 19.5 µM (inactive) | 22 µM (inactive) | 9.98 µM (inactive) | 22.2 µM (inactive) | 11.5 µM (inactive) | 20.9 µM (inactive) | 15.5 µM (inactive) | 21.8 µM (inactive) | 10.3 µM (inactive) | 14.2 µM (inactive) | 27.1 µM (inactive) | 14.8 µM (inactive)
2 | C/C=C\C1OC1(C)c1cc(=O)c2c(C)cc3c(c2o1)C(=O)c1c(O)c(C2CC(C)(N(C)C)C(OC(C)=O)C(C)O2)cc(C2CC(N(C)C)C(O)C(C)O2)c1C3=O (stereo not given) | 0.00463 µM (active) | 0.0152 µM (active) | < 0.00375 µM (active) | 0.00621 µM (active) | 0.00546 µM (active) | < 0.00375 µM (active) | < 0.00375 µM (active) | < 0.00375 µM (active) | 0.00836 µM (active) | < 0.00375 µM (active) | < 0.00375 µM (active) | < 0.00375 µM (active) | < 0.00375 µM (active) | 0.00984 µM (active) | < 0.00375 µM (active) | < 0.00375 µM (active) | < 0.00375 µM (active) | 0.00409 µM (active) | < 0.00375 µM (active) | < 0.00375 µM (active)
3 | CN(C)CCCNc1ccc2c(=O)n(CCN(C)C)c(=O)n3c4ccccc4c(=O)c1c23 | 0.798 µM (active) | 0.628 µM (active) | 0.234 µM (active) | 0.132 µM (active) | 0.356 µM (active) | 0.245 µM (active) | 0.394 µM (active) | 0.101 µM (active) | 0.272 µM (active) | 0.0637 µM (active) | 0.132 µM (active) | 0.0335 µM (active) | 0.0268 µM (active) | 0.396 µM (active) | 0.22 µM (active) | 0.236 µM (active) | 0.144 µM (active) | 0.396 µM (active) | 0.0512 µM (active) | 0.0752 µM (active)
4 | O=C(O)COCC(=O)N(CCOCCN(Cc1ccccc1)C(=O)COCC(=O)O)Cc1ccccc1 | > 100 µM (inactive) | > 100 µM (inactive) | > 100 µM (inactive) | > 100 µM (inactive) | > 100 µM (inactive) | > 100 µM (inactive) | > 100 µM (inactive) | > 100 µM (inactive) | > 100 µM (inactive) | > 100 µM (inactive) | > 100 µM (inactive) | > 100 µM (inactive) | > 100 µM (inactive) | > 100 µM (inactive) | > 100 µM (inactive) | > 100 µM (inactive) | > 100 µM (inactive) | > 100 µM (inactive) | > 100 µM (inactive) | > 100 µM (inactive)
